# Assay results published in patent publication US20040121031A1, “Novel topical skin care and nutraceutical applications of Glabridin or extracts containing a defined amount (4-90%) of Glabridin” (priority 2002, published 2004).
# Assay: Ease of solubility in cosmetically acceptable solvents
# Format: physicochemical
# Details: in contrast to Ursolic acid
# Description: In order to formulate an effective cosmetic product, the individual ingredients have to be solublized in cosmetically acceptable solvents. The following table indicates the ease of solubility of glabridin and the licorice extract in contrast to Ursolic acid, a terpenoid compound used in cosmetics for similar claims.
smiles,measurement,value
"CC1(C)C=Cc2c(ccc3c2OC[C@@H](c2ccc(O)cc2O)C3)O1 [glabridin, Glabridin]",ease of solubility,much more easily soluble than Ursolic acid
